Reference: ChEMBL document CHEMBL1201862, “PubChem BioAssay data set” (2004)
Activity calls are given as the source filed them.

How the values were obtained:
[1] = Trypanosoma cruzi growth suppression in host cells – NIH3T3 host cells, beta-gal luminescence, confirmation (AID 2044); type: functional, cell-based;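 also: intracellular parasites grown in NIH/3T3 mouse fibroblasts as host cells; luminescent beta-galactosidase reporter signal from transgenic T. cruzi replicating inside host cells; inhibitors lower the luminescence signal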
[2] = NIH3T3 cell viability loss – ATP luminescence, mouse fibroblasts, counter-screen, dose response (AID 2010); type: functional, cell-based;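 also: cells exposed to compound for about 90 hours before reading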
[3] = target: Eukaryotic translation initiation factor 4E (Mus musculus, UniProt P63073); assay: blockers of eIF4G binding by eIF4E – biochemical, TR-FRET, dose response (AID 855); type: functional;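 also: potency for disrupting eIF4E binding to eIF4GI seen as loss of FRET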
[4] = target: T1, DNA repair protein RAD52 homolog (Homo sapiens, UniProt P43351); type: functional, biochemical
T1 sequence (P43351 whole entry): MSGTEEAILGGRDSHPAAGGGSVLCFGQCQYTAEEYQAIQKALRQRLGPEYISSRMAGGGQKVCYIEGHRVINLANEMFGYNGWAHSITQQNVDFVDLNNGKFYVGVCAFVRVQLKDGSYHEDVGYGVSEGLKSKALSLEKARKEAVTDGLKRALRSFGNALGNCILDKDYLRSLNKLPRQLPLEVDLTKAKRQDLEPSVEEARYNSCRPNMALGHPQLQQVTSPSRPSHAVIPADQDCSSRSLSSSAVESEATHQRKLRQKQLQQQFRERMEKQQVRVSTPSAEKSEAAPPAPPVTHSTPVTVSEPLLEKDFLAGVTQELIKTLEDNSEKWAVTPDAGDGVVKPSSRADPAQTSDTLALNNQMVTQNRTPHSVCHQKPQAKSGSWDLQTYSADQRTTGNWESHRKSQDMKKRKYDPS

cells [5] = type: functional, cell-based
[6] = target: T2, Adenosylmethionine-8-amino-7-oxononanoate aminotransferase (Mycobacterium tuberculosis, UniProt P9WQ81); assay: Mycobacterium tuberculosis BioA enzyme inhibitor Measured in Biochemical System Using Plate Reader - 2163-02_Inhibitor_Dose_CherryPick_Activity.; type: functional, Mycobacterium tuberculosis UT205
T2 sequence (P9WQ81 whole entry): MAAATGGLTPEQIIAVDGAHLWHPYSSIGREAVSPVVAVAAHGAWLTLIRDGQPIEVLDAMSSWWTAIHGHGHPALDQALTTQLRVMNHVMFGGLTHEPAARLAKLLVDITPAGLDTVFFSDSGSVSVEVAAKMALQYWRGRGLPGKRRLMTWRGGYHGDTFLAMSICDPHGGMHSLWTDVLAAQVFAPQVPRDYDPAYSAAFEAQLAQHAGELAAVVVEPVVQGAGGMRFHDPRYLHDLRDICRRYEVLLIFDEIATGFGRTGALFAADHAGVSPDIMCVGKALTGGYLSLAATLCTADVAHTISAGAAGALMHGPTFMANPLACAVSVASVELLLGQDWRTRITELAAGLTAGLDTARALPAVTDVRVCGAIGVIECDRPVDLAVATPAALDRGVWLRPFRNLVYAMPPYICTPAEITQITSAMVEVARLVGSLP

H9c2 = assay: cells; type: functional, cell-based; conditions: Rattus norvegicus, H9c2, Myocardium;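 also: confirmatory concentration-response retest of ultra-high-throughput screening hits for modulation of myocardial damage; cell death induced by hydrogen peroxide oxidative stress; compound pretreatment for 60 min then peroxide exposure for 2 h; potency is for protecting the cells against peroxide damage rather than for killing them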
[7] = viability of uninfected HEp-2 cells – cell-based, HTS, cytotoxicity control for RSV inhibitor project, dose response (AID 2410); type: functional; conditions: human respiratory syncytial virus
[8] = target: Heat shock protein HSP 90-alpha (Homo sapiens, UniProt P07900); type: functional, organism-based
[9] = HIV-1 Vif–A3G interaction blockers – biochemical, TR-FRET, GST-Vif 1-94, biotin-A3G peptide, dose response retest, primary screen (AID 1117319); type: functional;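 also: TR-FRET signal of purified GST-Vif binding a biotinylated A3G peptide; inhibitors lower the FRET signal by blocking Vif and A3G binding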
[10] = target: T3, Corticotropin-releasing factor receptor 2/Corticotropin-releasing factor-binding protein (Homo sapiens, UniProt P24387+Q13324); assay: Dose Response confirmation of uHTS hits for small molecule antagonists of the CRF-binding protein and CRF-R2 receptor complex.; type: functional; conditions: read-out: IC50_Mean
T3 sequence (Q13324 whole entry): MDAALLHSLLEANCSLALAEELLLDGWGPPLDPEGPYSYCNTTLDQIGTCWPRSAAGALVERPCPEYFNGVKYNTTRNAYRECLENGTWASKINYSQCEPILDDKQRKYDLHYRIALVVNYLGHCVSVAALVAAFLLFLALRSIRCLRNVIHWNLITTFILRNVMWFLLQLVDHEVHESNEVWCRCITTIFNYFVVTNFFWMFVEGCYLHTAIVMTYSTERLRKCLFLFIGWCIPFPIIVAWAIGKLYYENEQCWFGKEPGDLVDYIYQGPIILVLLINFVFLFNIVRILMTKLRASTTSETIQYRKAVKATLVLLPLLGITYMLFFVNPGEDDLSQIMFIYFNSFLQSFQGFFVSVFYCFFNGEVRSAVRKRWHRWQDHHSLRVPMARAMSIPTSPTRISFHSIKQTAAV
T3 sequence (P24387 whole entry): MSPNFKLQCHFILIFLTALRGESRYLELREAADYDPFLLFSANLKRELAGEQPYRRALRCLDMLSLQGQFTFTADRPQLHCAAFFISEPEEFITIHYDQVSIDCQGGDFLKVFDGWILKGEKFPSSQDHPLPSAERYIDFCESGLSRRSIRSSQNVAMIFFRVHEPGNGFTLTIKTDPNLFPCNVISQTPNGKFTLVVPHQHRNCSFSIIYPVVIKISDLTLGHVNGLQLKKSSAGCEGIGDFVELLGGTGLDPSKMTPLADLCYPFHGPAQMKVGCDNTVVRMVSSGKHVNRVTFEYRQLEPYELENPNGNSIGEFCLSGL

[11] = target: T3, Corticotropin-releasing factor receptor 2/Corticotropin-releasing factor-binding protein; assay: activators of CRF receptor 2 with binding protein – uHTS hits, confirmation (AID 602473); type: functional; conditions: read-out: EC50_Mean
[12] = blockers of CRF-binding protein–CRF-R2 complex – cell-based, uHTS hits, 384-well, dose response (AID 651639); type: functional, Homo sapiens; conditions: read-out: IC50_Mean
[13] = target: T4, Rac GTPase-activating protein 1 (Homo sapiens, UniProt Q9H0H5); assay: blockers of MgcRacGAP-driven Rac1 GTP hydrolysis – biochemical, ADP Hunter fluorescence, primary and confirmatory, confirmation (AID 624330); type: functional
T4 sequence (Q9H0H5 whole entry): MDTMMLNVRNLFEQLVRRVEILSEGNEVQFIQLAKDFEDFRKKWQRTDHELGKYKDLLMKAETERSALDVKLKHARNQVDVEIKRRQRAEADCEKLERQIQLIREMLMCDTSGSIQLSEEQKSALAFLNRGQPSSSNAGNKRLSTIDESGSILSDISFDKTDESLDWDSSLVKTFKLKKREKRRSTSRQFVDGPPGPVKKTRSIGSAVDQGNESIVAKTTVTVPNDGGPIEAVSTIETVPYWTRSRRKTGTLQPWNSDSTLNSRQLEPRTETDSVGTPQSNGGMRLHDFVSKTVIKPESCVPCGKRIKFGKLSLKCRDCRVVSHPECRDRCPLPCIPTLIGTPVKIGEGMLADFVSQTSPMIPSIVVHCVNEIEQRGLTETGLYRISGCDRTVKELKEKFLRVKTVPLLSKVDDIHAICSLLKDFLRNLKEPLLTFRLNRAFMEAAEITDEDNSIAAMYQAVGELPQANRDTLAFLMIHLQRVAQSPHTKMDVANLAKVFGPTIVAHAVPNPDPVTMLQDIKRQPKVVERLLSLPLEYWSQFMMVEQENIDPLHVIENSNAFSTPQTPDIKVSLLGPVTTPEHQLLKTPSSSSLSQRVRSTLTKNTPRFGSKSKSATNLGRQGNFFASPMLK

[14] = luciferase reporter signal suppression in cells – H4 neuroglioma cells, luminescence, dose response (AID 1990); type: functional, cell-based
[15] = Luminescence Cell-Based Dose Response HTS to Identify Inhibitors of 5'UTR Stem-Loop Driven Prion Protein mRNA Translation in H4 Neuroglioblastoma Cells. [Related pubchem assays: 1827 (Project Summary), 1813 (Primary HTS)]; type: functional
[16] = target: T5, Heat shock factor protein 1 (Mus musculus, UniProt P38532); assay: decrease of HSF1-responsive luciferase luminescence – cell-based, NIH3T3, dose retest, confirmation (AID 2382); type: functional;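 also: NIH3T3 fibroblasts with HSF1-driven luciferase reporter stressed by proteasome inhibitor MG132; luminescence from HSF1-driven luciferase expression after 8 hours of MG132 stress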
T5 sequence (P38532 whole entry): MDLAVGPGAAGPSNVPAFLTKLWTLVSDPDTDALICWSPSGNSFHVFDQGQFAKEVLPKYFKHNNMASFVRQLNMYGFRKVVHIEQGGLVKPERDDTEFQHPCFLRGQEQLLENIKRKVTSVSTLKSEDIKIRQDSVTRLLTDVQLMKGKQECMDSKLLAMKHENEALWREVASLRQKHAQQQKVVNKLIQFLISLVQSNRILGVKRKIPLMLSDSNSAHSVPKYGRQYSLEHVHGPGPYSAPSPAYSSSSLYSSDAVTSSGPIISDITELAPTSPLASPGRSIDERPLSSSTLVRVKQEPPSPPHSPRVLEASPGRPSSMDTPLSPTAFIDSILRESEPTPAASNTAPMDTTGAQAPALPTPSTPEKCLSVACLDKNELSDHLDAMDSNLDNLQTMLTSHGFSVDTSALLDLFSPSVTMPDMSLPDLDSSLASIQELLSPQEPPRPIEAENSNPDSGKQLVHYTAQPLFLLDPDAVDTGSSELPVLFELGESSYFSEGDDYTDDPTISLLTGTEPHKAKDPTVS

[17] = alpha-synuclein stem-loop luciferase translation blockers – H4 neuroglioma cells, luminescence, confirmation (AID 1988); type: functional, cell-based
HEK293 = assay: EBV LMP1 TES2 canonical NF-kB signalling blockers – cell-based, HEK293, luciferase, cherry-pick, dose response (AID 588343); type: functional; conditions: Homo sapiens
[18] = target: T6, Calpain-2 catalytic subunit (Sus scrofa, UniProt P43367); assay: m-calpain protease blockers, concentration series – biochemical, fluorogenic peptide substrate, dose response (AID 1420); type: functional
T6 sequence (P43367 whole entry): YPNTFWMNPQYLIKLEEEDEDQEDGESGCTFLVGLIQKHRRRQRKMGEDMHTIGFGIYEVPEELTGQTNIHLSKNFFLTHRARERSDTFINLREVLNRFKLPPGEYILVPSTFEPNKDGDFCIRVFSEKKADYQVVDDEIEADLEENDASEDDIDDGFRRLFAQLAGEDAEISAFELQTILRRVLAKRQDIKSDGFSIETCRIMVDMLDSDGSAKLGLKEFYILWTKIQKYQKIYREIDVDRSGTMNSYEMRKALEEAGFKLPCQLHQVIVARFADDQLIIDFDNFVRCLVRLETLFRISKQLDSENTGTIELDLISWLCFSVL

Vero = assay: viability of Vero cells under compound – cytotoxicity control for flavivirus capping enzyme inhibitors (AID 588742); type: functional; conditions: Chlorocebus sabaeus
[19] = target: T7, Probable nicotinate-nucleotide adenylyltransferase (Staphylococcus aureus (strain N315), UniProt P65502); type: functional, Staphylococcus aureus subsp. aureus N315;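 as to IC50 Mean: confirmatory dose-response retesting of NadD inhibitor hits first found in an ultra-high-throughput screen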
[20] = target: T7, Probable nicotinate-nucleotide adenylyltransferase; type: functional, Staphylococcus aureus subsp. aureus N315; conditions: read-out: IC50_Mean
cells [21] = type: functional, cell-based; remark: listed apart in the source
cells [22] = type: functional, cell-based; remark: listed apart in the source

T7 sequence (P65502 whole entry): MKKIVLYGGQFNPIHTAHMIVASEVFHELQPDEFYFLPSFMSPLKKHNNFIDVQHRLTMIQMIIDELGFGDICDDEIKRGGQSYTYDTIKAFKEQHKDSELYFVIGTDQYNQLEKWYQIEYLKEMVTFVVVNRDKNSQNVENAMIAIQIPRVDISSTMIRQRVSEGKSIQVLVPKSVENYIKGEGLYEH
Sequence of Eukaryotic translation initiation factor 4E (P63073 whole entry): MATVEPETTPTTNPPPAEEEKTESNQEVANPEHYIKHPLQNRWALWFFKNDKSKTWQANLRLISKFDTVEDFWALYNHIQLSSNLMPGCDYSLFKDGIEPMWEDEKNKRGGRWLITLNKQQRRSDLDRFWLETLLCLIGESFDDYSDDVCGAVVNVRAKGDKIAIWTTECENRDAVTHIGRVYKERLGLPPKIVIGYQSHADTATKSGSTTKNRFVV

CN1CCN(CCCNC(=O)c2ccc(/C=C3\Sc4ccccc4N(Cc4ccccc4F)C3=O)cc2)CC1
EC50 [1]: 0.3 µM (active)
EC50 [2]: 6.91 µM (active)
IC50 [3]: 50 µM (inactive)
AC50 [4]: 5.23 µM (active)

O=C(Nc1ncc2c(n1)CC(c1ccco1)CC2=O)c1ccccc1 (configuration not stated)
EC50 (cells [5]): > 350 µM (not active)
AC50 [6]: 0.657 µM (active)

CN(C)CCCNc1ccc(-c2nnc(O)c3ccccc23)cc1[N+](=O)[O-]
IC50 (H9c2): 13.9 µM (active)
AC50 [4]: 20.5 µM (active)

CCS(=O)(=O)Nc1cccc(-c2cc(-c3ccccc3)c3cc(C)ccc3n2)c1
CC50 [7]: 12 µM (active)
AC50 [8]: 4.3 µM (active)

COc1cc2c(cc1OC)CN1CCc3cc(OC)c(OC)cc3C1C2 (configuration not stated)
AC50 [4]: 4.49 µM (active)

O=C1CC(c2ccco2)CC(=O)C1=CNc1ccc(Br)cc1 (configuration not stated)
IC50 [9]: > 100 µM (active)

COc1cc(C=C2C(=O)c3ccccc3C2=O)cc(OC)c1OC
IC50 [10]: 1.59 µM (active)
EC50 [11]: > 53 µM (inactive)
IC50 [12]: 1.46 µM (active)
IC50 [13]: 126 µM (active)

COC(=O)C1CCN(C2CC(=O)N(c3cc(C)cc(C)c3)C2=O)CC1 (configuration not stated)
AC50 [8]: 7.09 µM (active)

Cn1ncc2cc3c(Nc4ccc(Cl)cc4)cccc3nc21
AC50 [6]: 5.67 µM (active)

CC1CCc2nc(N)c(C#N)c(-c3cccnc3)c2C1 (configuration not stated)
EC50 [14]: 21.9 µM (active)
EC50 [15]: 7.72 µM (active)
EC50 [16]: 1.83 µM (active)
EC50 [17]: > 120 µM (not active)
AC50 (HEK293): 9.95 µM (active)

CCC(CO)Oc1cc(NC(=O)c2cccc(F)c2)c2ncn(C(C)C)c2c1 (configuration not stated)
AC50 [6]: 5 µM (active)

O=C(N/C(=C/c1ccc(Cl)cc1)c1nc2ccccc2[nH]1)c1ccco1
IC50 [9]: > 100 µM (active)

O=C(O)CC/C(=N/Nc1ccc([N+](=O)[O-])cc1)C(=O)O
AC50 [8]: 4.79 µM (active)

O=C(N[C@H]1CC[C@@H](CCn2cc(-c3cccnc3)nn2)O[C@@H]1CO)c1ccccc1F
AC50 [6]: 11.7 µM (active)

COc1ccc(NC(=O)CN(C)C(=O)C2=COCCO2)cc1
IC50 [10]: < 0.368 µM (active)
EC50 [11]: > 53 µM (inactive)
IC50 [12]: > 20 µM (inactive)

Cc1nn(-c2ccccc2)c(N)c1Sc1ccc([N+](=O)[O-])cc1
IC50 [10]: < 0.368 µM (active)
EC50 [11]: > 53 µM (inactive)
IC50 [12]: 12.8 µM (active)

CC(C)n1c(=S)[nH]c2scc(-c3cccs3)c2c1=O
IC50 [18]: 18.2 µM (not active)
CC50 (Vero): > 40 µM (active)
IC50 [19]: 13.5 µM (active)
IC50 [20]: 34 µM (active)

O=C(N[C@H](C(=O)N1CCC[C@H]1C(=O)NCCc1ccccc1Cl)c1ccccc1)c1cccs1
IC50 (cells [21]): > 29.9 µM (inactive)
EC50 (cells [22]): > 29.9 µM (inactive)

CC(NC(=O)CC(c1ccccc1)c1cc(Cl)ccc1O)c1ccccc1 (configuration not stated)
IC50 [10]: 13.1 µM (active)
EC50 [11]: > 53 µM (inactive)
IC50 [12]: > 20 µM (inactive)
